Experimental data published in ChEMBL document CHEMBL4002566, “S-substituted 3,5-dinitrophenyl 1,3,4-oxadiazole-2-thiols and tetrazole-5-thiols as highly efficient antitubercular agents” (Eur J Med Chem, 2017).

Experiments:
[1] = tested on: Mycobacterium tuberculosis; test: Antimycobacterial activity against Mycobacterium tuberculosis H37Rv by broth microdilution method; type: functional
[2] = tested on: Candida albicans; test: Antifungal activity against Candida albicans ATCC 44859 after 48 hrs by broth microdilution method; type: functional; details: ATCC 44859, 48 h
[3] = tested on: Nakaseomyces glabratus; test: Antifungal activity against Candida glabrata 20/I after 24 hrs by broth microdilution method; type: functional
[4] = tested on: Aspergillus fumigatus; test: Antifungal activity against Aspergillus fumigatus 231 after 48 hrs by broth microdilution method; type: functional; details: Aspergillus fumigatus, 231, 48 h
[5] = tested on: A-431; test: Cytotoxicity against human A431 cells assessed as cell viability after 48 hrs by MTS assay; type: cell-based; details: A-431, 48 h
[6] = tested on: Nakaseomyces glabratus; test: Antifungal activity against Candida glabrata 20/I after 48 hrs by broth microdilution method; type: functional
[7] = tested on: Staphylococcus epidermidis; test: Antibacterial activity against Staphylococcus epidermidis HK6996/08 after 24 hrs by broth microdilution method; type: functional; details: HK6996/08, 24 h
[8] = tested on: Trichosporon asahii; test: Antifungal activity against Trichosporon asahii 1188 after 48 hrs by broth microdilution method; type: functional; details: Trichosporon asahii, 1188, 48 h
[9] = tested on: Mycobacterium kansasii; test: Antimycobacterial activity against Mycobacterium kansasii 6509/96 clinical isolate after 7 days by micromethod; type: functional; details: 6509/96, 168 h
[10] = tested on: MDCK; test: Cytotoxicity against MDCK cells assessed as cell viability after 48 hrs by MTS assay; type: cell-based; details: Canis lupus familiaris
[11] = tested on: Candida tropicalis; test: Antifungal activity against Candida tropicalis 156 after 24 hrs by broth microdilution method; type: functional; details: Candida tropicalis, 156, 24 h
[12] = tested on: Mycobacterium tuberculosis; test: Antimycobacterial activity against Mycobacterium tuberculosis CNCTC My 331/88 after 21 days by micromethod; type: functional; details: CNCTC My 331/88, 504 h
[13] = tested on: Trichosporon asahii; test: Antifungal activity against Trichosporon asahii 1188 after 24 hrs by broth microdilution method; type: functional; details: Trichosporon asahii, 1188, 24 h
[14] = tested on: Trichophyton mentagrophytes; test: Antifungal activity against Trichophyton mentagrophytes 445 after 72 hrs by broth microdilution method; type: functional; details: Trichophyton mentagrophytes, 445, 72 h
[15] = tested on: Enterococcus sp.; test: Antibacterial activity against Enterococcus sp. HK14365/08 after 24 hrs by broth microdilution method; type: functional; details: HK14365/08, 24 h
[16] = Cytotoxicity against human HuH7 cells assessed as cell viability at 30 uM after 48 hrs by MTS assay relative to control; type: cell-based, Huh-7; details: read-out: Activity
[17] = tested on: Lichtheimia corymbifera; test: Antifungal activity against Absidia corymbifera 272 after 24 hrs by broth microdilution method; type: functional; details: Lichtheimia corymbifera, 272, 24 h
[18] = tested on: Staphylococcus epidermidis; test: Antibacterial activity against Staphylococcus epidermidis HK6996/08 after 48 hrs by broth microdilution method; type: functional; details: HK6996/08, 48 h
[19] = tested on: Klebsiella pneumoniae; test: Antibacterial activity against extended spectrum beta-lactamase producing Klebsiella pneumoniae HK14368/08 after 24 hrs by broth microdilution method; type: functional; details: HK14368/08, 24 h
[20] = tested on: Escherichia coli; test: Antibacterial activity against Escherichia coli ATCC 8739 after 48 hrs by broth microdilution method; type: functional; details: ATCC 8739, 48 h
[21] = tested on: Mycobacterium kansasii; test: Antimycobacterial activity against Mycobacterium kansasii CNCTC My 235/80 after 7 days by micromethod; type: functional; details: CNCTC My 235/80, 168 h
[22] = tested on: Pichia kudriavzevii; test: Antifungal activity against Candida krusei E28 after 48 hrs by broth microdilution method; type: functional; details: E28, 48 h
[23] = tested on: Klebsiella pneumoniae; test: Antibacterial activity against Klebsiella pneumoniae HK11750/08 after 48 hrs by broth microdilution method; type: functional; details: HK11750/08, 48 h
[24] = Cytotoxicity against human HepG2 cells assessed as cell viability at 30 uM after 48 hrs by MTS assay relative to control; type: cell-based; details: read-out: Activity
[25] = tested on: Aspergillus fumigatus; test: Antifungal activity against Aspergillus fumigatus 231 after 24 hrs by broth microdilution method; type: functional; details: Aspergillus fumigatus, 231, 24 h
[26] = tested on: Candida tropicalis; test: Antifungal activity against Candida tropicalis 156 after 48 hrs by broth microdilution method; type: functional; details: Candida tropicalis, 156, 48 h
[27] = tested on: Lichtheimia corymbifera; test: Antifungal activity against Absidia corymbifera 272 after 48 hrs by broth microdilution method; type: functional; details: Lichtheimia corymbifera, 272, 48 h
[28] = tested on: Mycobacterium avium; test: Antimycobacterial activity against Mycobacterium avium CNCTC My 330/88 after 14 days by micromethod; type: functional; details: CNCTC My 330/88, 336 h
[29] = tested on: Staphylococcus aureus; test: Antibacterial activity against Staphylococcus aureus ATCC 6538 after 24 hrs by broth microdilution method; type: functional; details: ATCC 6538, 24 h
[30] = tested on: Mycobacterium kansasii; test: Antimycobacterial activity against Mycobacterium kansasii CNCTC My 235/80 after 21 days by micromethod; type: functional; details: CNCTC My 235/80, 504 h
[31] = tested on: Huh-7; test: Cytotoxicity against human HuH7 cells assessed as cell viability after 48 hrs by MTS assay; type: cell-based; details: Huh-7, 48 h
[32] = Cytotoxicity against MDCK cells assessed as cell viability at 30 uM after 48 hrs by MTS assay relative to control; type: cell-based, Canis lupus familiaris; details: dog, read-out: Activity
[33] = tested on: Pseudomonas aeruginosa; test: Antibacterial activity against Pseudomonas aeruginosa ATCC 9027 after 48 hrs by broth microdilution method; type: functional; details: ATCC 9027, 48 h
[34] = tested on: Staphylococcus aureus; test: Antibacterial activity against Staphylococcus aureus ATCC 6538 after 48 hrs by broth microdilution method; type: functional; details: ATCC 6538, 48 h
[35] = tested on: Mycobacterium kansasii; test: Antimycobacterial activity against Mycobacterium kansasii 6509/96 clinical isolate after 21 days by micromethod; type: functional; details: 6509/96, 504 h
[36] = tested on: HepG2; test: Cytotoxicity against human HepG2 cells assessed as cell viability after 48 hrs by MTS assay; type: cell-based; details: HepG2, 48 h
[37] = tested on: Klebsiella pneumoniae; test: Antibacterial activity against Klebsiella pneumoniae HK11750/08 after 24 hrs by broth microdilution method; type: functional; details: HK11750/08, 24 h
[38] = tested on: Staphylococcus aureus; test: Antibacterial activity against methicillin-resistant Staphylococcus aureus HK5996/08 after 48 hrs by broth microdilution method; type: functional; details: HK5996/08, 48 h
[39] = tested on: Staphylococcus aureus; test: Antibacterial activity against methicillin-resistant Staphylococcus aureus HK5996/08 after 24 hrs by broth microdilution method; type: functional; details: HK5996/08, 24 h
[40] = tested on: Escherichia coli; test: Antibacterial activity against Escherichia coli ATCC 8739 after 24 hrs by broth microdilution method; type: functional; details: ATCC 8739, 24 h
[41] = tested on: Mycobacterium avium; test: Antimycobacterial activity against Mycobacterium avium CNCTC My 330/88 after 21 days by micromethod; type: functional; details: CNCTC My 330/88, 504 h
[42] = tested on: Mycobacterium tuberculosis; test: Antimycobacterial activity against Mycobacterium tuberculosis CNCTC My 331/88 after 14 days by micromethod; type: functional; details: CNCTC My 331/88, 336 h
[43] = tested on: Candida albicans; test: Antifungal activity against Candida albicans ATCC 44859 after 24 hrs by broth microdilution method; type: functional; details: ATCC 44859, 24 h
[44] = tested on: Mycobacterium kansasii; test: Antimycobacterial activity against Mycobacterium kansasii 6509/96 clinical isolate after 14 days by micromethod; type: functional; details: 6509/96, 336 h
[45] = Cytotoxicity against human A431 cells assessed as cell viability at 30 uM after 48 hrs by MTS assay relative to control; type: cell-based, A-431; details: read-out: Activity
[46] = tested on: Klebsiella pneumoniae; test: Antibacterial activity against extended spectrum beta-lactamase producing Klebsiella pneumoniae HK14368/08 after 48 hrs by broth microdilution method; type: functional; details: HK14368/08, 48 h
[47] = tested on: Trichophyton mentagrophytes; test: Antifungal activity against Trichophyton mentagrophytes 445 after 120 hrs by broth microdilution method; type: functional; details: Trichophyton mentagrophytes, 445, 120 h
[48] = Selectivity index, ratio of IC50 for human HepG2 cells to MIC for Mycobacterium tuberculosis; type: toxicity; details: read-out: Selectivity Index
[49] = tested on: Enterococcus sp.; test: Antibacterial activity against Enterococcus sp. HK14365/08 after 48 hrs by broth microdilution method; type: functional; details: HK14365/08, 48 h
[50] = tested on: Pichia kudriavzevii; test: Antifungal activity against Candida krusei E28 after 24 hrs by broth microdilution method; type: functional; details: E28, 24 h
[51] = tested on: Pseudomonas aeruginosa; test: Antibacterial activity against Pseudomonas aeruginosa ATCC 9027 after 24 hrs by broth microdilution method; type: functional; details: ATCC 9027, 24 h
[52] = tested on: Mycobacterium kansasii; test: Antimycobacterial activity against Mycobacterium kansasii CNCTC My 235/80 after 14 days by micromethod; type: functional; details: CNCTC My 235/80, 336 h

C[C@H]1COC2(CCN(c3nc(=O)c4cc(C(F)(F)F)cc([N+](=O)[O-])c4s3)CC2)O1 [BTZ-043]
0.001 µM: MIC [1]

O=[N+]([O-])c1cc(-c2nnc(SCc3ccc(Br)cc3)o2)cc([N+](=O)[O-])c1
143%: viability at 48 h, 30 µM [16]
> 30 µM: IC50 [5] | IC50 [10] | IC50 [31] | IC50 [36]
0.03 µM: MIC [9] | MIC [21] | MIC [42] | MIC [44] | MIC [52]
113%: viability at 48 h, 30 µM [24]
> 1000: selectivity ratio [48]
125 µM: MIC [28] | MIC [41]
99%: viability at 48 h, 30 µM [45]
> 125 µM: MIC [2] | MIC [3] | MIC [4] | MIC [6] | MIC [7] | MIC [8] | MIC [11] | MIC [13] | MIC [14] | MIC [15] | MIC [17] | MIC [18] | MIC [19] | MIC [20] | MIC [22] | MIC [23] | MIC [25] | MIC [26] | MIC [27] | MIC [29] | MIC [33] | MIC [34] | MIC [37] | MIC [38] | MIC [39] | MIC [40] | MIC [43] | MIC [46] | MIC [47] | MIC [49] | MIC [50] | MIC [51]
0.06 µM: MIC [12] | MIC [30] | MIC [35]
114%: viability at 48 h, 30 µM [32]
